Measured values as given in publication PMC6787163, “Systematic Dual Targeting of Dendritic Cell C-Type Lectin Receptor DC-SIGN and TLR7 Using a Trifunctional Mannosylated Antigen” (Frontiers in Chemistry, 2019).

Legend:
DC-SIGN ECD = molecular target: T1, DC-SIGN ECD (Homo sapiens, UniProt Q9NNX6); assay: SPR competition (inhibition) assay, DC-SIGN ECD on BSA-mannotriose surface; type: binding; settings: DC-SIGN ECD 20 μM
T1 construct: The ECD of DC-SIGN (residues 66–404) was overexpressed and purified as previously described; made in house
T1 sequence (Q9NNX6 66-404): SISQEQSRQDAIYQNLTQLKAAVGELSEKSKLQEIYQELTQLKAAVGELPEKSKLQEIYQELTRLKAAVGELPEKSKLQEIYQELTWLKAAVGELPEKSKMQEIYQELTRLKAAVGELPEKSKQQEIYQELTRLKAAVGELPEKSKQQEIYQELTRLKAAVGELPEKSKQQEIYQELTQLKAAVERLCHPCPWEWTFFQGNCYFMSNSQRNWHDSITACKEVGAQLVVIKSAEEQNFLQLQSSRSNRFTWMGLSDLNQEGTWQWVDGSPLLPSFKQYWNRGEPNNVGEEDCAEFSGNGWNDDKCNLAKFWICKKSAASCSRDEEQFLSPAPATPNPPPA
Experimental: (§1) The affinity of the clusters for the extracellular domain (ECD) of the DC-SIGN receptor (DC-SIGN ECD) was estimated via surface plasmon resonance (SPR) assays (Tabarani et al., [2009]). The apparent Kd was calculated in direct interaction mode using a surface functionalized in an oriented manner with DC-SIGN ECD. In this assay, tetrameric DC-SIGN ECD is attached to the surface of the sensor chip via the N-terminus of its neck oligomerization domain, thus presenting its four carbohydrate recognition domains toward the solvent, realistically mimicking the presentation of the receptor on cell surface (Porkolab et al., [2019]). For some of the low affinity ligands, in the mM range, it was not possible to determine their affinity with this assay, and therefore a competition experiment was performed providing IC50 values (Timpano et al., [2008]) (Figure 3A). […] When comparing equivalent clusters, the α1,2-di-mannoside (B series) bound with the highest affinity (Figure 3A). […] A potential explanation for this effect could be that the spacing of clusters is more important for the larger tri-mannosides.
The ECD of DC-SIGN (residues 66–404) was overexpressed and purified as previously described (Tabarani et al., [2009]). The DC-SIGN S-ECD construct used for direct interaction experiment (see below) has been overexpressed and purified as described elsewhere (Porkolab et al., [2019]). The SPR competition experiments were performed on a BIAcore T200 using a CM3 series S sensor chip. Flow cells were activated as previously described (Halary et al., [2002]). Flow cell 1 was functionalized with BSA, blocked with ethanolamine and subsequently used as a control surface. Flow cells 2 and 3 were treated with BSA-Man α1-3[Manα1-6]Man (Dextra) (60 μg/mL) in 10 mM NaOAc pH 4 and blocked with ethanolamine. The final densities on flow cells 2 and 3 were about 2,100 RU. The affinities of the various compounds for DC-SIGN ECD were evaluated via an established inhibition assay (Andreini et al., [2011]) in which DCSIGN ECD was injected at 20 μM alone or in the presence of increasing concentration of inhibitors. Injections were performed at 5 μL/min using 25 mM Tris-HCl pH 8, 150 mM NaCl, 4 mM CaCl2, 0.05% P20 surfactant as running buffer. The surface was regenerated by the injection of 50 mM EDTA. The data was analyzed in BIAcore BIAevaluation software using four parameter equation.

DC-SIGN S-ECD = molecular target: T2, DC-SIGN S-ECD (Homo sapiens, UniProt Q9NNX6); assay: SPR direct interaction assay on oriented DC-SIGN S-ECD surface; type: binding; settings: SPR direct interaction, oriented tetrameric DC-SIGN ECD surface, apparent Kd; read-out: Kdapp
T2 construct: The ECD of DC-SIGN (residues 66–404) was overexpressed and purified as previously described; made in house
T2 sequence (Q9NNX6 66-404): T1 sequence (Q9NNX6 66-404)
Experimental: as §1
The direct interaction experiments were executed on a T200 Biacore with a CM3 series S sensor chip. Contrary to the competition assay described above, in this test, DC-SIGN ECD used harbors a StreptagII in its N-terminus (DC-SIGN S-ECD) to allow its capture and functionalization onto the surface in an oriented manner. Flow cells were functionalized as previously described (Porkolab et al., [2019]). Briefly, after EDC/NHS activation, flow cells were functionalized with streptactin protein in a first step. Flow cell 1 was used as control, while other flow cells were, in a second round of activation, functionalized with 100 μg/mL of a DC-SIGN S-ECD up to a final density ranging between 2,500 and 3,000 RU, via tag specific capture and linkage by amine coupling chemistry simultaneously. The compounds were injected in running buffer of 25 mM Tris pH 8, 150 mM NaCl, 4 mM CaCl2, 0.05% Tween 20 onto the surface at increasing concentrations with a flow rate of 30 μL/min. The ligand titration led to the determination of an apparent Kd value. The data was analyzed in BIAcore BIAevaluation software for direct interaction 1:1 calculation assuming that the Kd will reflect the affinity of the ligands (glycoclusters) for the DC-SIGN oriented surface used as a whole.

moDCs = assay: Internalization of biotinylated hexavalent clusters by moDCs (flow cytometry); type: cell-based, human
Experimental: For the internalization, the moDCs were incubated with clusters b6, c6, d6, and e6 for 1 h at 4°C, where after unbound ligands were washed away with ice-cold medium. Warm medium was added to the moDCs, and samples were taken at the indicated time points and put on ice. Upon staining the moDCs with fluorophore-conjugated streptavidin, we could measure the signal loss of the membrane via flow cytometry. To exclude ligand-receptor dissociation before internalization, the moDCs were fixed under gentle conditions, hereby inhibiting receptor-mediated endocytosis. On fixed moDCs the clusters remained at the surface, as no signal loss could be detected (Supplementary Figure 1D). […] The di-mannoside clusters (b6, c6, and d6) were internalized relatively fast, with a 50% uptake within 5 min (Figure 5B). The tri-mannoside cluster e6 however remained longer at the membrane surface and only a 25% uptake was seen after 30 min. Similar results were seen using a pH-sensitive fluorophore. In acidic environments, such as the endosomes and lysosomes, the fluorescence of this dye increases. Pre-complexed clusters mirrored the accelerated uptake of the di-mannoside clusters over the e6 cluster (Supplementary Figure 1E). Although the DC-SIGN mediated uptake mechanism is known (Cambi et al., [2009]), the initiation trigger for endocytosis upon DC-SIGN-ligand binding remains unclear. Recognition of the di-mannoside clusters could induce signaling leading to accelerated uptake, whereas the tri-mannoside cluster could trigger a different signaling pathway. Nonetheless, the clusters harboring the smaller mannosides are preferred. Although the binding affinity of the clusters ranged from 0.9 to 6.6 μM, the di-mannosides induce more rapid DC-SIGN internalization over the tri-mannosides, and can thus increase intracellular peptide concentrations more efficiently for further antigen processing and presentation.
Immature day 5 moDCs were harvested and washed with cold HBSS (Thermo Fischer), after which half of the moDCs were gently fixed for 20 min at RT with 1% PFA in PBS. Afterwards, 20 μM of the different biotinylated mannose-clusters in cold HBSS were added. The moDCs were incubated for 1 h on ice, and washed in cold HBSS. Subsequently, warm HBSS was added to the cells, and cells were incubated at 37°C in a shaking heating block. At the indicated time points, a sample of the cells was taken and put on ice. After the last time point, the cells were stained with Streptavidin-Alexa647 (Thermo Fisher), measured using flow cytometry (CyAn™ ADP with Summit™ Software), and further analyzed using FlowJo v10. The same procedure was used for internalization with pHrodo^TM Red Avidin (Thermo Fischer). The different biotinylated mannose-clusters were however incubated with pHrodo-Avidin (ratio 2:1) for 15 min at 37°C, prior to moDC exposure. The fluorescence upon internalization was measured using flow cytometry (BD LSRFortessa™ X-20 with FACSDiva Software), and further analyzed using FlowJo v10.

| Structure (SMILES) | IC50 (DC-SIGN ECD) [µM] | also measured |
| --- | --- | --- |
| CC(=O)N[C@@H](CCCCn1cc(CO[C@H]2O[C@H](CO)[C@@H](O)[C@H](O)[C@@H]2O)nn1)C(=O)NCC(=O)N[C@@H](CCCCn1cc(CO[C@H]2O[C@H](CO)[C@@H](O)[C@H](O)[C@@H]2O)nn1)C(=O)NCC(=O)N[C@@H](CCCCN)C(N)=O [A2] | 2600 ± 95 | – |
| CC(=O)N[C@@H](CCCCn1cc(CO[C@H]2O[C@H](CO)[C@@H](O)[C@H](O)[C@@H]2O)nn1)C(=O)NCC(=O)N[C@@H](CCCCn1cc(CO[C@H]2O[C@H](CO)[C@@H](O)[C@H](O)[C@@H]2O)nn1)C(=O)NCC(=O)N[C@@H](CCCCn1cc(CO[C@H]2O[C@H](CO)[C@@H](O)[C@H](O)[C@@H]2O)nn1)C(=O)NCC(=O)N[C@@H](CCCCN)C(N)=O [A3] | 736.7 ± 3.4 | – |
| CC(=O)N[C@@H](CCCCn1cc(CO[C@H]2O[C@H](CO)[C@@H](O)[C@H](O)[C@@H]2O[C@H]2O[C@H](CO)[C@@H](O)[C@H](O)[C@@H]2O)nn1)C(=O)NCC(=O)N[C@@H](CCCCN)C(N)=O [B1] | 2340 ± 109 | – |
| CC(=O)N[C@@H](CCCCn1cc(CO[C@H]2O[C@H](CO)[C@@H](O)[C@H](O)[C@@H]2O[C@H]2O[C@H](CO)[C@@H](O)[C@H](O)[C@@H]2O)nn1)C(=O)NCC(=O)N[C@@H](CCCCn1cc(CO[C@H]2O[C@H](CO)[C@@H](O)[C@H](O)[C@@H]2O[C@H]2O[C@H](CO)[C@@H](O)[C@H](O)[C@@H]2O)nn1)C(=O)NCC(=O)N[C@@H](CCCCN)C(N)=O [B2] | 189 ± 3.45 | – |
| CC(=O)N[C@@H](CCCCn1cc(CO[C@H]2O[C@H](CO)[C@@H](O)[C@H](O[C@H]3O[C@H](CO)[C@@H](O)[C@H](O)[C@@H]3O)[C@@H]2O)nn1)C(=O)NCC(=O)N[C@@H](CCCCn1cc(CO[C@H]2O[C@H](CO)[C@@H](O)[C@H](O[C@H]3O[C@H](CO)[C@@H](O)[C@H](O)[C@@H]3O)[C@@H]2O)nn1)C(=O)NCC(=O)N[C@@H](CCCCN)C(N)=O [C2] | 567.4 ± 1.15 | – |
| CC(=O)N[C@@H](CCCCn1cc(CO[C@H]2O[C@H](CO)[C@@H](O)[C@H](O[C@H]3O[C@H](CO)[C@@H](O)[C@H](O)[C@@H]3O)[C@@H]2O)nn1)C(=O)NCC(=O)N[C@@H](CCCCn1cc(CO[C@H]2O[C@H](CO)[C@@H](O)[C@H](O[C@H]3O[C@H](CO)[C@@H](O)[C@H](O)[C@@H]3O)[C@@H]2O)nn1)C(=O)NCC(=O)N[C@@H](CCCCn1cc(CO[C@H]2O[C@H](CO)[C@@H](O)[C@H](O[C@H]3O[C@H](CO)[C@@H](O)[C@H](O)[C@@H]3O)[C@@H]2O)nn1)C(=O)NCC(=O)N[C@@H](CCCCN)C(N)=O [C3] | 171.9 ± 1.45 | – |
| CC(=O)N[C@@H](CCCCn1cc(CO[C@H]2O[C@H](CO)[C@@H](O)[C@H](O[C@H]3O[C@H](CO)[C@@H](O)[C@H](O)[C@@H]3O)[C@@H]2O)nn1)C(=O)N[C@@H](CCCCn1cc(CO[C@H]2O[C@H](CO)[C@@H](O)[C@H](O[C@H]3O[C@H](CO)[C@@H](O)[C@H](O)[C@@H]3O)[C@@H]2O)nn1)C(=O)N[C@@H](CCCCn1cc(CO[C@H]2O[C@H](CO)[C@@H](O)[C@H](O[C@H]3O[C@H](CO)[C@@H](O)[C@H](O)[C@@H]3O)[C@@H]2O)nn1)C(=O)N[C@@H](CCCCn1cc(CO[C@H]2O[C@H](CO)[C@@H](O)[C@H](O[C@H]3O[C@H](CO)[C@@H](O)[C@H](O)[C@@H]3O)[C@@H]2O)nn1)C(=O)N[C@@H](CCCCn1cc(CO[C@H]2O[C@H](CO)[C@@H](O)[C@H](O[C@H]3O[C@H](CO)[C@@H](O)[C@H](O)[C@@H]3O)[C@@H]2O)nn1)C(=O)N[C@@H](CCCCn1cc(CO[C@H]2O[C@H](CO)[C@@H](O)[C@H](O[C@H]3O[C@H](CO)[C@@H](O)[C@H](O)[C@@H]3O)[C@@H]2O)nn1)C(=O)NCC(=O)N[C@@H](CCCCN)C(N)=O [C6] | – | Kd (DC-SIGN S-ECD): 1.17 µM; internalization by moDCs (loss of surface streptavidin signal) (moDCs; 20 μM cluster, live moDCs): rapidly internalized; internalization by moDCs (pHrodo-avidin fluorescence increase) (moDCs; clusters pre-complexed with pH-sensitive dye): internalized rapidly; uptake by immature moDCs (moDCs; within 5 min at 37°C, 20 μM cluster): 50% |
| CC(=O)N[C@@H](CCCCn1cc(CO[C@H]2O[C@H](CO[C@H]3O[C@H](CO)[C@@H](O)[C@H](O)[C@@H]3O)[C@@H](O)[C@H](O)[C@@H]2O)nn1)C(=O)NCC(=O)N[C@@H](CCCCN)C(N)=O [D1] | 6960 ± 3040 | – |
| CC(=O)N[C@@H](CCCCn1cc(CO[C@H]2O[C@H](CO[C@H]3O[C@H](CO)[C@@H](O)[C@H](O)[C@@H]3O)[C@@H](O)[C@H](O)[C@@H]2O)nn1)C(=O)NCC(=O)N[C@@H](CCCCn1cc(CO[C@H]2O[C@H](CO[C@H]3O[C@H](CO)[C@@H](O)[C@H](O)[C@@H]3O)[C@@H](O)[C@H](O)[C@@H]2O)nn1)C(=O)NCC(=O)N[C@@H](CCCCN)C(N)=O [D2] | 410.9 ± 0.3 | – |
| CC(=O)N[C@@H](CCCCn1cc(CO[C@H]2O[C@H](CO[C@H]3O[C@H](CO)[C@@H](O)[C@H](O)[C@@H]3O)[C@@H](O)[C@H](O[C@H]3O[C@H](CO)[C@@H](O)[C@H](O)[C@@H]3O)[C@@H]2O)nn1)C(=O)NCC(=O)N[C@@H](CCCCN)C(N)=O [E1] | 1520 ± 250 | – |
